The source of these data is US10314799B2 (priority 2015, dated 2019).

Where two headings read alike, the source gives them in different places.

The test system of assay [1] is PEDV. The settings on record: Virus Research (2013), 171(1), 44-53; cited from earlier work.
In assay [2] the test system is PEDV. Kind of assay: Prevention of porcine epidemic diarrhea of newborn piglets by orally administering taurine to PEDV-carried pregnant sows. The format is in vivo, pigs. The settings on record: taurine 50 g per sow per day, oral. The text has this: Prevention of the porcine epidemic diarrhea on the newborn piglets with taurine was implemented by orally administering taurine to pregnant sows.
Drug administration time: 3-30 days before birth of piglets until 15 days after birth of piglets. In consideration of a use-cost, the drug administration time is preferably 5-20 days before birth of piglets until 10 days after birth of piglets, and more preferably 7-14 days before birth of piglets until 5 days after birth of piglets. The effect is subject to an obvious time-effect relationship. The drug administration time for before birth of piglets directly determines a disease incidence of the newborn piglets.
Drug administration dosage: each pregnant sow was administered with 5-500 g of taurine per day, and the administration was in a single dose or in divided doses. The effect is subject to an obvious quantity-effect relationship.
Specific operations: pregnant sows were selected and excrement thereof was tested by RT-PCR to determine the pregnant sows carrying PEDV in vivo. 60 PEDV-carried pregnant sows were divided into two groups randomly. Control group: conventional feeding; experimental group: conventional feeding+50 g per sow per day of taurine.

Assay [3] concerns porcine epidemic diarrhea. Description: Prevention of porcine epidemic diarrhea of weaned piglets, care pigs and finishing pigs. The format is in vivo. The settings on record: 200 mg per kilogram of body weight per day. On the procedure: Prevention of the porcine epidemic diarrhea on the weaned piglets, the care pigs and the finishing pigs with taurine was implemented by orally administering taurine to a swine herd, wherein the administration may be carried out by means of feeding in water or mixed feeding.
Drug administration time: a preventative administration was carried out during an epidemic period of the disease, or in autumn, winter and spring when the temperature was low and changed greatly, that is, in the season when the porcine epidemic diarrhea frequently occurs. Generally, the administration can be carried out for a long-term. In consideration of the use-cost, the drug administration time is preferably 3-30 days, and more preferably, 7-14 days. The effect is subject to an obvious time-effect relationship.
Drug administration dosage: 0.005-2% of taurine was added in daily-drinking water for the pigs to drink freely; or 0.01-5% of taurine was added into the feed, which is equivalent to a dosage of 50-10000 mg per kilogram of body weight per day of taurine, and the administration was in a single dose or in divided doses. The effect is subject to an obvious quantity-effect relationship.
Specific operations: 120 healthy weaned piglets, 120 healthy care pigs and 120 healthy finishing pigs were selected and randomly divided into two groups equivalently. Control group: conventional feeding; experimental group: conventional feeding+taurine (the dosage of taurine was 200 mg per kilogram of body weight per day).

The next assay concerns rotavirus diarrhea. Kind of assay: Treatment of rotavirus diarrhea. The format is in vivo, pigs.
In assay [4] the test system is porcine epidemic diarrhea. Kind of assay: Treatment of porcine epidemic diarrhea of newborn suckling piglets (piglets and lactating sows treated). The format is in vivo, pigs. The note with it: diseased newborn suckling piglets; 100 g per sow per day, 0.2 g per piglet per day. On the procedure: Treatment of the porcine epidemic diarrhea on newborn piglets with taurine was implemented by orally administering a taurine solution to diseased suckling piglets and administering taurine to lactating sows, that is, simultaneous treatment of both the suckling piglets and the lactating sows.
Drug administration time: the administration by drenching/mixed-feeding was carried out on the day when the disease occurred in the suckling piglets and a non-interrupted administration lasted for 3-10 days. Lactating sows: non-interrupted oral administration lasted for 5-10 days.
Drug administration dosage: the administration by drenching and/or mixed-feeding was carried out on the day when the disease occurred in the suckling piglets. The administration by drenching: 2% taurine solution at a dosage of 1-5 mL per time and it was taken 2-6 times per day. The administration by mixed-feeding: 1-20 g/L of taurine solution was drunk freely. Lactating sows: each sow was administered with 5-500 g of taurine per day and the administration was in a single dose or in divided doses.
Specific operations: 40 litters of diseased newborn suckling piglets and sows thereof were selected and randomly divided into two groups equivalently. Control group: conventional supportive therapy (fluid infusion+antibiotic therapy+atropine sulfate); experimental group: treatment with taurine.

The subject of assay [5] is porcine epidemic diarrhea. Description: Treatment of porcine epidemic diarrhea of weaned piglets, care pigs and finishing pigs. The format is in vivo. The note with it: 300 mg per kilogram of body weight per day. On the procedure:
Treatment of the porcine epidemic diarrhea on the weaned piglets, the care pigs and the finishing pigs with taurine was implemented by orally administering taurine to the pigs, wherein the administration may be carried out by means of feeding in water or mixed feeding.
Drug administration time: the administration was carried out from the day of occurrence of the disease, and in consideration of the use-cost, the drug administration time is preferably 3-30 days, and more preferably 7-14 days. The effect is subject to an obvious time-effect relationship.
Drug administration dosage: 0.1-2% of taurine was added in the daily-drinking water for the pigs to drink freely; or 0.2-5% of taurine was added into the feed, which is equivalent to a dosage of 100-10000 mg per kilogram of body weight per day of taurine, and the administration was in a single dose or in divided doses. The effect is subject to an obvious quantity-effect relationship.
Specific operations: 60 diseased weaned piglets, 60 diseased care pigs and 60 diseased finishing pigs were selected, and were randomly divided into two groups equivalently. Control group: conventional supportive therapy (fluid infusion+antibiotic therapy+atropine sulfate); experimental group: treatment with taurine (the dosage of taurine was 300 mg per kilogram of body weight per day).

For assay [6], the system named is pseudorabies viral diarrhea. The format is in vivo, pigs.
Assay [7] deals with porcine transmissible gastroenteritis. The format is in vivo, pigs.
The subject of the next assay is epidemic diarrhea. The note with it: orally administered to diseased piglets, specific dose; cited from earlier work.
[8] abbreviates: care pigs, dosage as in Embodiment 4.
[9] abbreviates: newborn piglets, dosage as in Embodiment 2.
Where [10] appears, read: weaned piglets, dosage as in Embodiment 4.
[11] abbreviates: finishing pigs, dosage as in Embodiment 4.

On to `NC(=O)c1ncn([C@@H]2O[C@H](CO)[C@@H](O)[C@H]2O)n1` [Ribavirin], for which, in the assay on PEDV [1], the “inhibition of replication of PEDV” value is given as “capable of inhibiting replication of PEDV”.
Consider `NCCS(=O)(=O)O` [taurine, β-aminoethanesulfonic acid], for which the “Death rate of the newborn piglets (%)” value in the assay with PEDV [2] turned out to be 75.1%. Besides, in the assay with PEDV [2], the “Disease incidence of the new born piglets (%)” value is on record as 85%. In addition, the “Disease incidence (%)” value in assay [3] (care pigs) is listed as 3.3%; in assay [3] (finishing pigs) it was 0%; in [3] (weaned piglets), 6.6%. Moreover, the Prognosis entry in assay [3] (care pigs) was “Excellent”; in [3] (finishing pigs), “Excellent”; in [3] (weaned piglets), “Excellent”; in the assay on rotavirus diarrhea (setting [8]), “Good”; in the assay with rotavirus diarrhea (setting [9]), “Good”; in the assay on rotavirus diarrhea (setting [10]), “Good”. In addition, the Prognosis result is reported as “Good” in assay [4]; “Good” in [5] (diseased care pigs); “Good” in assay [5] (diseased finishing pigs); “Good” in [5] (diseased weaned piglets); “General” in assay [6] (setting [8]); “Good” in assay [7] (setting [8]). Also, the Prognosis entry in assay [7] (setting [11]), in [7] (setting [9]) and in [7] (setting [10]) was “Good” in each case. Besides, the “Survival rate (%)” value in assay [3] (care pigs) is on record as 96.6%; in [3] (finishing pigs), 98.3%; in assay [3] (weaned piglets), 96.6%; in the assay with rotavirus diarrhea (setting [8]), 96.6%; in the assay on rotavirus diarrhea (setting [9]), 93.6%; in the assay with rotavirus diarrhea (setting [10]) it was 96.6%. The “Survival rate (%)” value is 93.3% in assay [5] (diseased care pigs); 100% in assay [5] (diseased finishing pigs); 90.0% in assay [5] (diseased weaned piglets); 43.3% in assay [6] (setting [8]); 0% in assay [6] (setting [9]); 93.3% in [7] (setting [8]). Besides, the entries for the “Survival rate (%)” value in [7] (setting [11]), in assay [7] (setting [9]) and in assay [7] (setting [10]) were 96.6%, 16.6% and 90%, respectively. Moreover, the “10-day-aged survival rate (%)” value in [4] is on record as 22.5%. Further, the Weaned survival rate in assay [4] came to 20.7. Also, the “treatment effect on the pseudorabies viral diarrhea” value in assay [6] (summary of Table 5) is “no treatment effect”.
As for povidone iodine, in the assay with epidemic diarrhea, the “improvement of survival rate” value was 5-10%.
